Measured values from US12606528B2, “Methods and materials for inhibiting NF-kB activity” (University of Pittsburgh - Of the Commonwealth System of …, priority 2019, dated 2026).
Read-outs that look alike come from different tables or passages of the source.

Columns and labels:
[1] = test system: TNF release; test: TNF assay: TNF release from LPS-stimulated human PBMCs (TNF ELISA); assay type: cell-based; details: human PBMCs, compounds 2 hours before LPS (10 ng/ml) for 18 hours, supernatant TNF ELISA, read-out: IC50 (TNF assay)
Method in brief: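 Human PBMCs at 10k/well pretreated with compound dilutions 2 h, then stimulated with LPS (10 ng/mL) for 18 h. TNF in supernatants quantified by ELISA; IC50 for inhibition of TNF release fitted from concentration–response.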

[2] = test system: NF-κB; test: NF-κB assay: THP1-NF-κB-LUC cells, LPS-stimulated secreted luciferase; assay type: cell-based; details: THP1-NF-κB-LUC cells; compounds 2 hours before LPS (10 ng/mL) for 18 hours; secreted luciferase; read-out: IC50 (NF-κB assay)
Method in brief: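 THP1-NF-κB-LUC cells (25k/well) were pretreated with compounds for 2 h, then stimulated with LPS (10 ng/mL) for 18 h. Secreted luciferase was measured and normalized to vehicle, and IC50 was fitted from the concentration series.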

SMILES | IC50 ([1]; PBMC) [µM] | IC50 [2] [µM] | IC50 [1] [µM]
CC(C)CC1Oc2cc(S(=O)(=O)Nc3ccc(F)cc3Cl)c(Br)cc2NC1=O (centres unmarked) [BC19778] | > 10 | > 10 | 
COc1ccc(NS(=O)(=O)c2cc(Br)cc3c2OC(CC(C)C)C(=O)N3)cc1Cl (centres unmarked) [BC19779] | 1 to 10 | 0.1 to 1 | 
COc1ccc(NS(=O)(=O)c2cc3c(cc2Br)NC(=O)C(CC(C)C)O3)cc1Cl (centres unmarked) [BC19780] | > 10 | 1 to 10 | 
CC(C)CC1Oc2c(cc(Br)cc2S(=O)(=O)Nc2ccc(F)cc2)NC1=O (centres unmarked) [BC19781] | 1 to 10 | < 0.1 | 
CC(C)CC1Oc2cc(S(=O)(=O)Nc3ccc(F)cc3)c(Br)cc2NC1=O (centres unmarked) [BC19782] | > 10 | 1 to 10 | 
CC1Oc2c(cc(Br)cc2S(=O)(=O)Nc2ccc(OC(F)(F)F)cc2)N(C)C1=O (centres unmarked) [BC19783] | > 10 | < 0.1 | 
CC1Oc2cc(S(=O)(=O)Nc3ccc(OC(F)(F)F)cc3)c(Br)cc2N(C)C1=O (centres unmarked) [BC19784] | > 10 | 1 to 10 | 
Cc1ccc(NS(=O)(=O)c2cc(Br)cc3c2OC(C)C(=O)N3C)cc1F (centres unmarked) [BC19785] | > 10 | < 0.1 | 
CC1Oc2cc(S(=O)(=O)Nc3ccc(F)c(F)c3)c(Br)cc2N(C)C1=O (centres unmarked) [BC19786] | > 10 | 1 to 10 | 
CC1Oc2c(cc(Br)cc2S(=O)(=O)Nc2ccc(F)c(F)c2)N(C)C1=O (centres unmarked) [BC19787] | > 10 | < 0.1 | 
CC1Oc2cc(S(=O)(=O)Nc3ccc(F)c(F)c3)c(Br)cc2N(C)C1=O (centres unmarked) [BC19788] |  | < 0.1 | > 10
CC1Oc2c(cc(Br)cc2S(=O)(=O)Nc2ccccc2)N(C)C1=O (centres unmarked) [BC19789] | 1 to 10 | < 0.1 | 
CC1Oc2cc(S(=O)(=O)Nc3ccccc3)c(Br)cc2N(C)C1=O (centres unmarked) [BC19790] | > 10 | 1 to 10 | 
CC1Oc2c(cc(Br)cc2S(=O)(=O)Nc2ccc(Cl)cc2)N(C)C1=O (centres unmarked) [BC19791] | > 10 | < 0.1 | 
CC1Oc2cc(S(=O)(=O)Nc3ccc(Cl)cc3)c(Br)cc2N(C)C1=O (centres unmarked) [BC19792] | > 10 | 1 to 10 | 
CC1Oc2c(cc(Br)cc2S(=O)(=O)Nc2ccc(C(C)C)cc2)N(C)C1=O (centres unmarked) [BC19793] | > 10 | < 0.1 | 

SMILES | IC50 ([1]; PBMC) [µM] | IC50 [2] [µM] | IC50 [1] [µM]
CC1Oc2cc(S(=O)(=O)Nc3ccc(C(C)C)cc3)c(Br)cc2N(C)C1=O (centres unmarked) [BC19794] | > 10 | 1 to 10 | 
COc1ccc(NS(=O)(=O)c2cc3c(cc2Br)N(C)C(=O)C(C)O3)cc1 (centres unmarked) [BC19795] | 1 to 10 | > 10 | 
Cc1ccc(NS(=O)(=O)c2cc(Br)cc3c2OC(C)C(=O)N3C)cc1Cl (centres unmarked) [BC19796] | 1 to 10 | < 0.1 | 
Cc1ccc(NS(=O)(=O)c2cc3c(cc2Br)N(C)C(=O)C(C)O3)cc1Cl (centres unmarked) [BC19797] | 1 to 10 | 1 to 10 | 
CC1Oc2c(cc(Br)cc2S(=O)(=O)Nc2ccc(F)cc2F)N(C)C1=O (centres unmarked) [BC19798] | 1 to 10 | < 0.1 | 
CC1Oc2cc(S(=O)(=O)Nc3ccc(F)cc3F)c(Br)cc2N(C)C1=O (centres unmarked) [BC19799] | 1 to 10 | 0.1 to 1 | 
CCc1cccc(NS(=O)(=O)c2cc(Br)cc3c2OC(C)C(=O)N3C)c1 (centres unmarked) [BC19900] | > 10 | 0.1 to 1 | 
CCc1cccc(NS(=O)(=O)c2cc3c(cc2Br)N(C)C(=O)C(C)O3)c1 (centres unmarked) [BC19901] | > 10 | 1 to 10 | 
CC1Oc2c(cc(Br)cc2S(=O)(=O)Nc2cccc(F)c2)N(C)C1=O (centres unmarked) [BC19902] | > 10 | < 0.1 | 
CC1Oc2cc(S(=O)(=O)Nc3cccc(F)c3)c(Br)cc2N(C)C1=O (centres unmarked) [BC19903] | > 10 | 0.1 to 1 | 
CC1Oc2c(cc(Br)cc2S(=O)(=O)Nc2cccc(Cl)c2)N(C)C1=O (centres unmarked) [BC19904] | > 10 | < 0.1 | 
CC1Oc2cc(S(=O)(=O)Nc3cccc(Cl)c3)c(Br)cc2N(C)C1=O (centres unmarked) [BC19905] | > 10 | 1 to 10 | 
Cc1ccc(NS(=O)(=O)c2cc(Br)cc3c2OC(C)C(=O)N3C)cc1 (centres unmarked) [BC19906] | 1 to 10 | < 0.1 | 
CC1Oc2cc(S(=O)(=O)Nc3ccc(F)cc3Cl)c(Br)cc2N(C)C1=O (centres unmarked) [BC19907] | > 10 | > 10 | 
CC1Oc2c(cc(Br)cc2S(=O)(=O)Nc2ccc(F)cc2Cl)N(C)C1=O (centres unmarked) [BC19908] | > 10 | < 0.1 | 
